Source: patent US8952024B2, “Herbicidal pyrimidone derivatives” (E I du Pont de Nemours and Company, priority 2009, dated 2015)

test system: Italian ryegrass (Lolium multiflorum); assay: Test B pre-/postemergence plant response; format: in vivo; details: Postemergence, 31 g ai/ha; 0 to 100 scale (0 no effect, 100 complete control)
Procedure, shortened: (§1)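 Seeds sown in loam–sand blend were treated preemergence, and plants at 2–18 cm (1- to 4-leaf stage) in peat-based medium were treated postemergence; compounds were formulated in non-phytotoxic solvent with surfactant. After 13–15 days in greenhouse, response was visually rated against controls, 0 (no effect) to 100 (complete control).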

Row | SMILES | Plant response rating, Ryegrass, Italian
1 | Cc1cc(-n2c(-c3cccc(F)c3)ncc(C(=O)C3=C(O)CCCC3=O)c2=O)ccc1F [Compound 191] | 40

same assay, conditions: Postemergence, 62 g ai/ha; scale 0 to 100 (0 no effect, 100 complete control)

Row | SMILES | Plant response rating, Ryegrass, Italian
2 | Cc1cc(-n2c(-c3cccc(F)c3)ncc(C(=O)C3=C(O)CCCC3=O)c2=O)ccc1F [Compound 191] | 40

same assay, conditions: Postemergence, 125 g ai/ha; scale 0 to 100 (0 no effect, 100 complete control)

Row | SMILES | Plant response rating, Ryegrass, Italian
3 | Cc1cc(-n2c(-c3cccc(F)c3)ncc(C(=O)C3=C(O)CCCC3=O)c2=O)ccc1F [Compound 191] | 50

same assay, conditions: Postemergence, 250 g ai/ha; scale 0 to 100 (0 no effect, 100 complete control); 13 to 15 days

Row | SMILES | Plant response rating, Ryegrass, Italian
4 | Cc1cc(-n2c(-c3cccc(F)c3)ncc(C(=O)C3=C(O)CCCC3=O)c2=O)ccc1F [Compound 191] | 50

test system: bermudagrass (Cynodon dactylon); assay: Test B pre-/postemergence plant response; format: in vivo; details: Postemergence, 31 g ai/ha; 0 to 100 scale (0 no effect, 100 complete control)
Procedure, shortened: as §1

Row | SMILES | Plant response rating, Bermudagrass
5 | Cc1cc(-n2c(-c3cccc(F)c3)ncc(C(=O)C3=C(O)CCCC3=O)c2=O)ccc1F [Compound 191] | 100

same assay, conditions: Postemergence, 62 g ai/ha; scale 0 to 100 (0 no effect, 100 complete control)

Row | SMILES | Plant response rating, Bermudagrass
6 | Cc1cc(-n2c(-c3cccc(F)c3)ncc(C(=O)C3=C(O)CCCC3=O)c2=O)ccc1F [Compound 191] | 100

same assay, conditions: Postemergence, 125 g ai/ha; scale 0 to 100 (0 no effect, 100 complete control)

Row | SMILES | Plant response rating, Bermudagrass
7 | Cc1cc(-n2c(-c3cccc(F)c3)ncc(C(=O)C3=C(O)CCCC3=O)c2=O)ccc1F [Compound 191] | 100

same assay, conditions: Postemergence, 250 g ai/ha; scale 0 to 100 (0 no effect, 100 complete control); 13 to 15 days

Row | SMILES | Plant response rating, Bermudagrass
8 | Cc1cc(-n2c(-c3cccc(F)c3)ncc(C(=O)C3=C(O)CCCC3=O)c2=O)ccc1F [Compound 191] | 100

test system: corn (Zea mays); assay: Test B pre-/postemergence plant response; format: in vivo; details: Postemergence, 31 g ai/ha; 0 to 100 scale (0 no effect, 100 complete control)
Procedure, shortened: as §1

Row | SMILES | Plant response rating, Corn
9 | Cc1cc(-n2c(-c3cccc(F)c3)ncc(C(=O)C3=C(O)CCCC3=O)c2=O)ccc1F [Compound 191] | 65

same assay, conditions: Postemergence, 62 g ai/ha; scale 0 to 100 (0 no effect, 100 complete control)

Row | SMILES | Plant response rating, Corn
10 | Cc1cc(-n2c(-c3cccc(F)c3)ncc(C(=O)C3=C(O)CCCC3=O)c2=O)ccc1F [Compound 191] | 75

same assay, conditions: Postemergence, 125 g ai/ha; scale 0 to 100 (0 no effect, 100 complete control)

Row | SMILES | Plant response rating, Corn
11 | Cc1cc(-n2c(-c3cccc(F)c3)ncc(C(=O)C3=C(O)CCCC3=O)c2=O)ccc1F [Compound 191] | 75

same assay, conditions: Postemergence, 250 g ai/ha; scale 0 to 100 (0 no effect, 100 complete control); 13 to 15 days

Row | SMILES | Plant response rating, Corn
12 | Cc1cc(-n2c(-c3cccc(F)c3)ncc(C(=O)C3=C(O)CCCC3=O)c2=O)ccc1F [Compound 191] | 85

test system: downy bromegrass (Bromus tectorum); assay: Test B pre-/postemergence plant response; format: in vivo; details: Postemergence, 31 g ai/ha; 0 to 100 scale (0 no effect, 100 complete control)
Procedure, shortened: as §1

Row | SMILES | Plant response rating, Bromegrass, Downy
13 | Cc1cc(-n2c(-c3cccc(F)c3)ncc(C(=O)C3=C(O)CCCC3=O)c2=O)ccc1F [Compound 191] | 35

same assay, conditions: Postemergence, 62 g ai/ha; scale 0 to 100 (0 no effect, 100 complete control)

Row | SMILES | Plant response rating, Bromegrass, Downy
14 | Cc1cc(-n2c(-c3cccc(F)c3)ncc(C(=O)C3=C(O)CCCC3=O)c2=O)ccc1F [Compound 191] | 40

same assay, conditions: Postemergence, 125 g ai/ha; scale 0 to 100 (0 no effect, 100 complete control)

Row | SMILES | Plant response rating, Bromegrass, Downy
15 | Cc1cc(-n2c(-c3cccc(F)c3)ncc(C(=O)C3=C(O)CCCC3=O)c2=O)ccc1F [Compound 191] | 50

same assay, conditions: Postemergence, 250 g ai/ha; scale 0 to 100 (0 no effect, 100 complete control); 13 to 15 days

Row | SMILES | Plant response rating, Bromegrass, Downy
16 | Cc1cc(-n2c(-c3cccc(F)c3)ncc(C(=O)C3=C(O)CCCC3=O)c2=O)ccc1F [Compound 191] | 75

test system: giant foxtail (Setaria faberii); assay: Test B pre-/postemergence plant response; format: in vivo; details: Postemergence, 31 g ai/ha; 0 to 100 scale (0 no effect, 100 complete control)
Procedure, shortened: as §1

Row | SMILES | Plant response rating, Foxtail, Giant
17 | Cc1cc(-n2c(-c3cccc(F)c3)ncc(C(=O)C3=C(O)CCCC3=O)c2=O)ccc1F [Compound 191] | 100

same assay, conditions: Postemergence, 62 g ai/ha; scale 0 to 100 (0 no effect, 100 complete control)

Row | SMILES | Plant response rating, Foxtail, Giant
18 | Cc1cc(-n2c(-c3cccc(F)c3)ncc(C(=O)C3=C(O)CCCC3=O)c2=O)ccc1F [Compound 191] | 100

same assay, conditions: Postemergence, 125 g ai/ha; scale 0 to 100 (0 no effect, 100 complete control)

Row | SMILES | Plant response rating, Foxtail, Giant
19 | Cc1cc(-n2c(-c3cccc(F)c3)ncc(C(=O)C3=C(O)CCCC3=O)c2=O)ccc1F [Compound 191] | 100

same assay, conditions: Postemergence, 250 g ai/ha; scale 0 to 100 (0 no effect, 100 complete control); 13 to 15 days

Row | SMILES | Plant response rating, Foxtail, Giant
20 | Cc1cc(-n2c(-c3cccc(F)c3)ncc(C(=O)C3=C(O)CCCC3=O)c2=O)ccc1F [Compound 191] | 100

test system: goosegrass (Eleusine indica); assay: Test B pre-/postemergence plant response; format: in vivo; details: Postemergence, 31 g ai/ha; 0 to 100 scale (0 no effect, 100 complete control)
Procedure, shortened: as §1

Row | SMILES | Plant response rating, Goosegrass
21 | Cc1cc(-n2c(-c3cccc(F)c3)ncc(C(=O)C3=C(O)CCCC3=O)c2=O)ccc1F [Compound 191] | 95

same assay, conditions: Postemergence, 62 g ai/ha; scale 0 to 100 (0 no effect, 100 complete control)

Row | SMILES | Plant response rating, Goosegrass
22 | Cc1cc(-n2c(-c3cccc(F)c3)ncc(C(=O)C3=C(O)CCCC3=O)c2=O)ccc1F [Compound 191] | 98

same assay, conditions: Postemergence, 125 g ai/ha; scale 0 to 100 (0 no effect, 100 complete control)

Row | SMILES | Plant response rating, Goosegrass
23 | Cc1cc(-n2c(-c3cccc(F)c3)ncc(C(=O)C3=C(O)CCCC3=O)c2=O)ccc1F [Compound 191] | 100

same assay, conditions: Postemergence, 250 g ai/ha; scale 0 to 100 (0 no effect, 100 complete control); 13 to 15 days

Row | SMILES | Plant response rating, Goosegrass
24 | Cc1cc(-n2c(-c3cccc(F)c3)ncc(C(=O)C3=C(O)CCCC3=O)c2=O)ccc1F [Compound 191] | 100
